How the values were obtained:
mice in a formalin test = experiment: Antalgic effect (I) on mice in a formalin test; type: in vivo; conditions: for average left hind leg-licking time, Mean: formalin 5 minutes later, measured for 5 minutes
Procedure: Antalgic Effect (I) on Mice in a Formalin Test
The antalgic action of the typical example of the compound of the present invention (Example 1) when intravenously administered was examined in the formalin test using mice (3).
ddy Mice (male, 4-week-old) purchased from Nippon SLC Ltd. were used in the experiment.
20.4 mg of the test compound was weighed, and 10.2 ml of 5.28% mannitol was added thereto to prepare 2 mg/ml (20 mg/kg) solution. Then, 3.8 ml of 5.28% mannitol was added to 3.8 ml of the 2 mg/ml solution to prepare 1 mg/ml (10 mg/kg) solution. Finally, 2.5 ml of 5.28% mannitol was added to 2.5 ml of the 1 mg/ml solution to prepare 0.5 mg/ml (5 mg/kg) solution. This test compound was weighed and prepared on the day when the experiment was conducted.
30 μl of commercial 35.0 to 38.0% formaldehyde was added to 970 μl physiological saline. The resulting solution was used as 3% formalin. Because the indicated purity of this commercial formaldehyde is 35.0 to 38.0%, the 3% formalin presently prepared and used is accurately 2.84 to 3.08% formalin.
The treatment group in this test consisted of 4 groups in total, that is, a control group, a 5 mg/kg test compound administration group, a 10 mg/kg administration group, and a 20 mg/kg administration group, and each group consisted of 5 animals.
The control group was given 0.1 ml of 5.28% mannitol per 10 g of the body weight. The test compound was administered at each concentration (0.5 mg/ml, 1 mg/ml, and 2 mg/ml) in an volume of 0.1 ml per 10 g of the body weight into the 5 mg/kg group, 10 mg/kg group and 20 mg/kg group, respectively.
5.28% mannitol was administered via the tail vein into each group given the compound of the present invention or into the control group, and the animals were placed in a transparent plastic observation cage. 5 minutes later, 20 μl of 3% formalin was subcutaneously administered into the bottom of the left hind leg of each mouse. The duration of the behavior of mouse's licking the left hind leg after administration of formalin was measured for 5 minutes and used as an indication of pain. The duration was expressed in second.
In the significant test, parametric one-way layout analysis of variance was conducted and then Dunnet-type multiple comparison was made (*: 0.01<p<0.05, **: p<0.01, vs. the control group). For the test, a statistical analysis assistant system with SAS 6.12 (SAS Institute Japan Ltd., Tokyo) integrated in it was used.

[1] = tested on: voltage-dependent calcium channels (cerebral cortex synaptosome); experiment: Measurement of voltage-dependent calcium channel activity by the use of a fluorescent pigment (fura 2); type: cell-based; conditions: rat cerebral cortex synaptosome, fura 2, KCl stimulation, compound incubated 10 minutes
Summary of the method: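 Synaptosomes were prepared from rat cerebral cortex by sucrose homogenisation and 0.8 M sucrose gradient centrifugation. They were loaded with fura-2/AM by mixing with an equal volume of 4 μM loading solution for 40 min at room temperature. Verapamil hydrochloride served as the reference compound.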

[2] = tested on: glutamic acid release from rat cerebral cortex slices; experiment: Inhibitory activity on glutamic acid release (cerebral cortex slices, high-conc. KCl); type: cell-based; conditions: glutamic acid release induced with 50 mM KCl, HPLC
Procedure: Inhibitory Activity on Glutamic Acid Release
Cerebral cortexes were isolated from SD strain male rats (8-week-old) and used to prepare 300 μm×300 μm slices by use of a slice chopper. The prepared slices were incubated at 37° C. for 30 minutes in solution C (120 mM NaCl, 4 mM KCl, 10 mM MgSO4, 16 mM NaHCO3, 10 mM glucose, 1 mM NaH2PO4, 10 mM HEPES-NaOH pH 7.4) in the presence of 95% O2/5% CO2. Thereafter, solution C was exchanged with fresh one, followed by further incubation for 30 minutes.
The cerebral cortex slices were incubated in a 24-wells plate for cell culture according to a multi-well method (Brain Res., 402, 255-263, 1987), and the release of glutamic acid was induced with 50 mM KCl. Solution D (120 mM NaCl, 4 mM KCl, 1.2 mM CaCl2, 1 mM MgSO4, 16 mM NaHCO3, 10 mM glucose, 1 mM NaH2PO4, 10 mM HEPES-NaOH pH 7.4) was aerated with 95% O2/5% CO2 and kept at 37° C. and used in this experiment. 50 mM KCl containing the same total amount of K^+ and Na^+ was prepared. Slices corresponding to 1 to 2 mg protein were placed on an upper cup provided with a mesh at the bottom, and 1.3 ml solution C or 50 mM KCl solution was introduced into a lower well, and the upper cup was transferred to a new well. 20 minutes before and 5 minutes after reaction was intiated, the test compound was added to solution D or 50 mM KCl.
Glutamic acid was quantified by HPLC using fluorescent etor (Ex. 330 nm Em. […]). The eluting solvent used was prepared by diluting 150 ml sodium citrate buffer for automatic amino acid analysis (Wako Pure Chemical Industries) 10-fold with distilled water, then adding MgCl2 thereto at the final concentration of 50 mM, and further diluting it twice with acetonitrile. The flow rate was 2.0 ml/min. The column used was Asahipak (ES-502N Denko, K. K.). The glutamic acid was converted into a derivative by addition, to 50 μl sample, of 50 μl deriving agent (10 mg o-phthalaldehyde/500 μl MeOH, 10 μl b-mercaptopropionic acid, 0.15 M sodium borate buffer pH 9.5, 100 μl) followed by stirring (Neuroscience Lett., 96, 202-206, 1989).

Question: What does the source list for `CC(C)C(C#N)(CCCN1CCN(CCOc2ccc(F)cc2)CC1)c1ccccc1` (stereo not drawn) [Example 1, 1-[(4-Cyano-5-methyl-4-phenyl)hexyl]-4-[2-(4-fluorophenoxy)ethyl]piperazine]?
Answer: average left hind leg-licking time, Mean (mice in a formalin test; 5 mg/kg i.v. (tail vein)): 49.4 s; licking time compared to the control group (mice in a formalin test; 5 mg/kg, 10 mg/kg and 20 mg/kg i.v.): statistically significant reduction in licking time; average left hind leg-licking time, Mean (mice in a formalin test; 10 mg/kg i.v. (tail vein)): 23.6 s; average left hind leg-licking time, Mean (mice in a formalin test; 20 mg/kg i.v. (tail vein)): 2.2 s; IC50 [1]: 5.9 µM; IC50 [2]: 3.5 µM

Source: patent US6737425B1, “N,N-substituted cyclic amine derivatives” (Eisai Co., Ltd., priority 1998, dated 2004)
